From article PMC7862291, “Full-length in meso structure and mechanism of rat kynurenine 3-monooxygenase inhibition” (Communications Biology, 2021)

Columns and labels:
Rat KMO = target: T1, Rat KMO (Rattus norvegicus, UniProt O88867); test: Rat KMO enzyme (cell-free) assay, NADPH consumption by absorbance; assay type: biochemical
T1 construct: The GST-tagged full-length KMO (1-478) baculovirus vector contained a thrombin cleavage site; GST (thrombin cleavage site between GST and KMO) (N, cleaved yes); made in house; host or cells: Spodoptera frugiperda (Sf9), baculovirus
T1 sequence (O88867 whole entry): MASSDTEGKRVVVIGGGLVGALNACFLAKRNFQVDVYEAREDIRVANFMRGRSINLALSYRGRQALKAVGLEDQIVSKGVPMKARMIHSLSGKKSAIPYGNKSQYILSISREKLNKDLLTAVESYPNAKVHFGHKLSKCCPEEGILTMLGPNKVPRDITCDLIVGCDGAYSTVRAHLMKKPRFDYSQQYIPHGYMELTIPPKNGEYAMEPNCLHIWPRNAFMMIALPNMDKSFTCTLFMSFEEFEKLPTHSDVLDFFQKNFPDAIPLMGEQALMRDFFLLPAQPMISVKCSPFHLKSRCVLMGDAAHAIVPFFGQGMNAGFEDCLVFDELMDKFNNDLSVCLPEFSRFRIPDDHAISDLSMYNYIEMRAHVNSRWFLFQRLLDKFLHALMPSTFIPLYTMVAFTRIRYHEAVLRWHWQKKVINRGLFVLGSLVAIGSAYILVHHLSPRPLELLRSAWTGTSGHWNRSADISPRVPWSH
Procedure: (§1) Human KMO was purchased from Origene and used to assay compounds. Full-length Rat-KMO purified for crystallisation was used to assay compounds. Full-length Rat-KMO-expressing membranes were used for mutant assays (Fig. 4b) only. […] Images were taken using Odyssey CLX (LI-COR Biosciences) and quantified using ImageStudio2.0 (LI-COR Biosciences) software.
(§2) Test compounds were dissolved in DMSO and diluted with assay buffer containing 50 mM HEPES, 2 mM MgCl2, 0.5 mM EGTA, 1 mM DTT, 0.05% Tween20 and 0.005% of antiform SI (pH = about 7.9) to prepare a 4% DMSO solution. […] After 5 min of pre-incubation, reactions were started by adding 10 μL of substrate solution containing 2.4 mM kynurenine and 0.6 mM NADPH. Reactions were run for 90 min at 30 °C, then terminated by adding 5 μL of stop buffer (40 mM maleimide, 2 mM WST-9 and 0.1 mM 1-methoky PMS in water). […] Liposomal assays were performed in the same manner except that the composition of the assay buffer was changed (phosphate-buffered saline, 2 mM MgCl2, 1 mM DTT, 0.05% Tween 20).
(§3) Compound assays were analysed and plotted on graphs using Prism (GraphPad Software Inc. San Diego, CA, USA).

[1] = target: T2, HEK293 cells stably expressing rat KMO (Rattus norvegicus, UniProt O88867); test: Cell-based rat KMO inhibition assay (LC/MS of 3-hydroxykynurenine)
T2 construct: expressed in transfected cells
T2 sequence (O88867 whole entry): as above
Procedure: (§4) HEK293 cells stably expressing human or rat KMO were maintained in DMEM containing 10% fetal bovine serum, 50 units/mL penicillin, 50 μg/mL streptomycin and 0.2 mg⁄mL zeocine. […] After 2 overnights, the medium was replaced with 10 μL/well of assay buffer (1 × HBSS containing 20 mM HEPES). Ten microliters per well of the diluted test compounds (final, 0–30 μM, 0.3% DMSO) were added to the respective wells. After ~30 min of pre-incubation at 37 °C, reactions were started by adding 20 μL of substrate solution containing 0.2 mM kynurenine. Reactions were run for 2 h at 37 °C, the assay buffer was discarded and the plate was immediately frozen and stored at −30 °C until LC/MS analysis.
(§5) An 80 µL volume of cold acetonitrile with 2% formic acid was added to the cell pellet in a 384-well plate and centrifuged at 3000 rpm for 10 min at 4 °C. A 40 µL volume of the supernatant was transferred to a new 384-well plate and evaporated to dryness under nitrogen gas at 45 °C. The residue was reconstituted in 100 µL of acetonitrile/water (10:90, v/v) with 0.1% formic acid, and 1 µL was injected into the LC-MS/MS system.
(§6) LC/MS/MS was performed on a Shimadzu UFLC Nexera X2 (Shimadzu Corporation, Japan) and an QTRAP® 5500 LC-MS/MS System (SCIEX, Framingham, USA). Chromatographic separation was performed using an Allure PFP Propyl analytical column (5 µm, 2.1 × 100 mm) maintained at 50 °C. The autosampler temperature was set at 15 °C. The mobile phase consisted of formic acid/water/acetonitrile/methanol (0.5/500/250/250, v/v/v/v) and the flow rate was set at 0.3 mL/min. 3-hydroxykynurenine was eluted from the LC column at a retention time of 1.2 min. The MS system was operated using electrospray ionization (ESI) in positive mode. The optimum conditions were curtain gas, 20 psi; ion spray voltage, 5500 V; heated nebulizer temperature (TEM), 700 °C; nebulizing gas (GS1), 70 psi; and heater gas (GS2), 70 psi. […] Analyst® software (SCIEX, Framingham, USA) was used for system control and MultiQuant™ Software (SCIEX, Framingham, USA) was used for data analysis.
as §3

[2] = target: T3, HEK293 cells stably expressing human KMO (Homo sapiens, UniProt O15229); test: Cell-based human KMO inhibition assay (LC/MS of 3-hydroxykynurenine)
T3 construct: expressed in transfected cells
T3 sequence (O15229 whole entry): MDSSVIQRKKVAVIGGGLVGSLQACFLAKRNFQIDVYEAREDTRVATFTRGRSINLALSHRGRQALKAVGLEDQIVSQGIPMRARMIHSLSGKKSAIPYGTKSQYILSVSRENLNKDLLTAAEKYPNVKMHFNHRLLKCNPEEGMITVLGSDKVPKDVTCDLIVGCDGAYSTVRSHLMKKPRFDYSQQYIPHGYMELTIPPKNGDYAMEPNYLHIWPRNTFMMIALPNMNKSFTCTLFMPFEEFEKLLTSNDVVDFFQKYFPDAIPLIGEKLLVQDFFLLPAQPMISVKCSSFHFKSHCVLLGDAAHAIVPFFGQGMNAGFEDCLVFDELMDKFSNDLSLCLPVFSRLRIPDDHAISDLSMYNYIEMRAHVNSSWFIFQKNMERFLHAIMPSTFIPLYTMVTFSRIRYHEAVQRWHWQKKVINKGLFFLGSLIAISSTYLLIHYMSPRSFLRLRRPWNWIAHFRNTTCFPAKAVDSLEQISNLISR
Procedure: as §4, §5, §6, §3

hKMO = target: T4, hKMO (Homo sapiens, UniProt O15229); test: Human KMO enzyme (cell-free) assay, NADPH consumption by absorbance; assay type: biochemical
T4 construct: purchased Origene
T4 sequence (O15229 whole entry): as above
Procedure: as §1, §2, §3

For `Cc1cnn(-c2ccc(OCc3ccccc3)c(C(=O)O)c2)c1-c1ccc(Cl)c(F)c1` [Compound 3], the IC50 (Rat KMO; cell-free enzyme assay, high kynurenine) was 9 nM, the “inhibition rate, Rat-KMO cell-free assay (Figure 1B source data)” value (“inhibition rate, Rat-KMO cell-free assay” for short) (Rat KMO; conc 0.0003 μM, duplicates) was 0.623% and the inhibition at 0.0003 µM (Rat KMO; conc 0.0003 μM, duplicates, read-out: inhibition rate, Rat-KMO cell-free assay (Figure 1B source data)) was 0.676%. For the same compound, the “inhibition rate, Rat-KMO cell-free assay” value (Rat KMO; conc 0.001 μM, duplicates) was 5.077%, the inhibition at 0.001 µM (Rat KMO; conc 0.001 μM, duplicates, read-out: inhibition rate, Rat-KMO cell-free assay (Figure 1B source data)) was 6.43% and the “inhibition rate, Rat-KMO cell-free assay” value (Rat KMO; conc 0.003 μM, duplicates) was 23.289%. The inhibition at 0.003 µM (Rat KMO; conc 0.003 μM, duplicates, read-out: inhibition rate, Rat-KMO cell-free assay (Figure 1B source data)) was 23.8%, the “inhibition rate, Rat-KMO cell-free assay” value (Rat KMO; conc 0.01 μM, duplicates) was 55.764% and the inhibition at 0.01 µM (Rat KMO; conc 0.01 μM, duplicates, read-out: inhibition rate, Rat-KMO cell-free assay (Figure 1B source data)) was 56.6%. The “inhibition rate, Rat-KMO cell-free assay” value (Rat KMO; conc 0.03 μM, duplicates) was 81.294%, the inhibition at 0.03 µM (Rat KMO; conc 0.03 μM, duplicates, read-out: inhibition rate, Rat-KMO cell-free assay (Figure 1B source data)) was 81.3% and the “inhibition rate, Rat-KMO cell-free assay” value (Rat KMO; conc 0.1 μM, duplicates) was 84.395%. The inhibition at 0.1 µM (Rat KMO; conc 0.1 μM, duplicates, read-out: inhibition rate, Rat-KMO cell-free assay (Figure 1B source data)) was 83.1%, the “inhibition rate, Rat-KMO cell-free assay” value (Rat KMO; conc 0.3 μM, duplicates) was 91.102% and the inhibition at 0.3 µM (Rat KMO; conc 0.3 μM, duplicates, read-out: inhibition rate, Rat-KMO cell-free assay (Figure 1B source data)) was 92.2%. The “inhibition rate, Rat-KMO cell-free assay” value (Rat KMO; conc 1 μM, duplicates) was 84.342%, the inhibition at 1 µM (Rat KMO; conc 1 μM, duplicates, read-out: inhibition rate, Rat-KMO cell-free assay (Figure 1B source data)) was 88.8% and the inhibition at 0.3 µM ([1]; HEK293, conc 0.3 μM, duplicates, read-out: inhibition rate, Rat-KMO cellular assay (Figure 1D source data)) was 62%. The inhibition at 1 µM ([1]; HEK293, conc 1 μM, duplicates, read-out: inhibition rate, Rat-KMO cellular assay (Figure 1D source data)) was 91.7%, the inhibition at 3 µM ([1]; HEK293, conc 3 μM, duplicates, read-out: inhibition rate, Rat-KMO cellular assay (Figure 1D source data)) was 97.7% and the inhibition at 10 µM ([1]; HEK293, conc 10 μM, duplicates, read-out: inhibition rate, Rat-KMO cellular assay (Figure 1D source data)) was 100%. For the same compound, the inhibition at 30 µM ([1]; HEK293, conc 30 μM, duplicates, read-out: inhibition rate, Rat-KMO cellular assay (Figure 1D source data)) was 100%, the IC50 ([1]; HEK293 cells expressing rat KMO, LC/MS) was 240 nM and the “inhibition rate, Rat-KMO cellular assay (Figure 1D source data)” value (“inhibition rate, Rat-KMO cellular assay” below) ([1]; conc 0.3 μM, duplicates) was 48.933%. The “inhibition rate, Rat-KMO cellular assay” value ([1]; conc 1 μM, duplicates) was 83.933%, the “inhibition rate, Rat-KMO cellular assay” value ([1]; conc 3 μM, duplicates) was 95.840% and the “inhibition rate, Rat-KMO cellular assay” value ([1]; conc 10 μM, duplicates) was 99.692%. The “inhibition rate, Rat-KMO cellular assay” value ([1]; conc 30 μM, duplicates) was 100.882%, the inhibition at 0.0003 µM ([2]; HEK293, conc 0.0003 μM, duplicates, read-out: inhibition rate, Hs-KMO cellular assay (Figure 1C source data)) was 6.79% and the inhibition at 0.001 µM ([2]; HEK293, conc 0.001 μM, duplicates, read-out: inhibition rate, Hs-KMO cellular assay (Figure 1C source data)) was 11%. The inhibition at 0.003 µM ([2]; HEK293, conc 0.003 μM, duplicates, read-out: inhibition rate, Hs-KMO cellular assay (Figure 1C source data)) was 12.3%, the inhibition at 0.01 µM ([2]; HEK293, conc 0.01 μM, duplicates, read-out: inhibition rate, Hs-KMO cellular assay (Figure 1C source data)) was 32.5% and the inhibition at 0.03 µM ([2]; HEK293, conc 0.03 μM, duplicates, read-out: inhibition rate, Hs-KMO cellular assay (Figure 1C source data)) was 100%. It also gave an inhibition at 0.1 µM ([2]; HEK293, conc 0.1 μM, duplicates, read-out: inhibition rate, Hs-KMO cellular assay (Figure 1C source data)) of 104%, an inhibition at 0.3 µM ([2]; HEK293, conc 0.3 μM, duplicates, read-out: inhibition rate, Hs-KMO cellular assay (Figure 1C source data)) of 105% and an IC50 ([2]; HEK293 cells expressing human KMO, LC/MS, read-out: Human cell-based assay IC50) of 12 nM. The “inhibition rate, Hs-KMO cellular assay (Figure 1C source data)” value (“inhibition rate, Hs-KMO cellular assay” for short) ([2]; conc 0.0003 μM, duplicates) was 4.270%, the “inhibition rate, Hs-KMO cellular assay” value ([2]; conc 0.001 μM, duplicates) was 10.835% and the “inhibition rate, Hs-KMO cellular assay” value ([2]; conc 0.003 μM, duplicates) was 13.039%. For the same compound, the “inhibition rate, Hs-KMO cellular assay” value ([2]; conc 0.01 μM, duplicates) was 26.636%, the “inhibition rate, Hs-KMO cellular assay” value ([2]; conc 0.03 μM, duplicates) was 98.487% and the “inhibition rate, Hs-KMO cellular assay” value ([2]; conc 0.1 μM, duplicates) was 104.397%. The IC50 (hKMO; cell-free enzyme assay, high kynurenine, read-out: Human KMO IC50) was 3.8 nM, the “inhibition rate, Hs-KMO cell-free assay (Figure 1A source data)” value (“inhibition rate, Hs-KMO cell-free assay” below) (hKMO; conc 0.0003 μM, duplicates) was 2.492% and the inhibition at 0.0003 µM (hKMO; conc 0.0003 μM, duplicates, read-out: inhibition rate, Hs-KMO cell-free assay (Figure 1A source data)) was 4.34%. The “inhibition rate, Hs-KMO cell-free assay” value (hKMO; conc 0.001 μM, duplicates) was 10.698%, the inhibition at 0.001 µM (hKMO; conc 0.001 μM, duplicates, read-out: inhibition rate, Hs-KMO cell-free assay (Figure 1A source data)) was 11% and the “inhibition rate, Hs-KMO cell-free assay” value (hKMO; conc 0.003 μM, duplicates) was 34.671%. The inhibition at 0.003 µM (hKMO; conc 0.003 μM, duplicates, read-out: inhibition rate, Hs-KMO cell-free assay (Figure 1A source data)) was 36%, the “inhibition rate, Hs-KMO cell-free assay” value (hKMO; conc 0.01 μM, duplicates) was 91.745% and the inhibition at 0.01 µM (hKMO; conc 0.01 μM, duplicates, read-out: inhibition rate, Hs-KMO cell-free assay (Figure 1A source data)) was 91.2%. The “inhibition rate, Hs-KMO cell-free assay” value (hKMO; conc 0.03 μM, duplicates) was 101.827%, the inhibition at 0.03 µM (hKMO; conc 0.03 μM, duplicates, read-out: inhibition rate, Hs-KMO cell-free assay (Figure 1A source data)) was 102% and the “inhibition rate, Hs-KMO cell-free assay” value (hKMO; conc 0.1 μM, duplicates) was 97.991%. For the same compound, the inhibition at 0.1 µM (hKMO; conc 0.1 μM, duplicates, read-out: inhibition rate, Hs-KMO cell-free assay (Figure 1A source data)) was 98.8%, the “inhibition rate, Hs-KMO cell-free assay” value (hKMO; conc 0.3 μM, duplicates) was 101.967% and the inhibition at 0.3 µM (hKMO; conc 0.3 μM, duplicates, read-out: inhibition rate, Hs-KMO cell-free assay (Figure 1A source data)) was 103%. For the same compound, the “inhibition rate, Hs-KMO cell-free assay” value (hKMO; conc 1 μM, duplicates) was 95.974% and the inhibition at 1 µM (hKMO; conc 1 μM, duplicates, read-out: inhibition rate, Hs-KMO cell-free assay (Figure 1A source data)) was 103%.
